{"source": "patent US20230406865A1", "about": "“CRYSTAL FORM OF FREE BASE OF INHIBITOR CONTAINING BICYCLIC RING DERIVATIVE AND PREPARATION METHOD AND APPLICATION OF CRYSTAL FORM” (SHANGHAI HANSOH BIOMEDICAL CO., LTD., priority 2020, published 2023)", "key": {"[1]": {"target": "T1, KIF5B-RET (Homo sapiens, UniProt P07949)", "T1 construct": "purchased SignalChem R02-19FG-05; the other entry of the earlier key: KIF5B (P33176, Kinesin-1 heavy chain)", "T1 sequence (P07949 with tags, fused parts or gaps)": "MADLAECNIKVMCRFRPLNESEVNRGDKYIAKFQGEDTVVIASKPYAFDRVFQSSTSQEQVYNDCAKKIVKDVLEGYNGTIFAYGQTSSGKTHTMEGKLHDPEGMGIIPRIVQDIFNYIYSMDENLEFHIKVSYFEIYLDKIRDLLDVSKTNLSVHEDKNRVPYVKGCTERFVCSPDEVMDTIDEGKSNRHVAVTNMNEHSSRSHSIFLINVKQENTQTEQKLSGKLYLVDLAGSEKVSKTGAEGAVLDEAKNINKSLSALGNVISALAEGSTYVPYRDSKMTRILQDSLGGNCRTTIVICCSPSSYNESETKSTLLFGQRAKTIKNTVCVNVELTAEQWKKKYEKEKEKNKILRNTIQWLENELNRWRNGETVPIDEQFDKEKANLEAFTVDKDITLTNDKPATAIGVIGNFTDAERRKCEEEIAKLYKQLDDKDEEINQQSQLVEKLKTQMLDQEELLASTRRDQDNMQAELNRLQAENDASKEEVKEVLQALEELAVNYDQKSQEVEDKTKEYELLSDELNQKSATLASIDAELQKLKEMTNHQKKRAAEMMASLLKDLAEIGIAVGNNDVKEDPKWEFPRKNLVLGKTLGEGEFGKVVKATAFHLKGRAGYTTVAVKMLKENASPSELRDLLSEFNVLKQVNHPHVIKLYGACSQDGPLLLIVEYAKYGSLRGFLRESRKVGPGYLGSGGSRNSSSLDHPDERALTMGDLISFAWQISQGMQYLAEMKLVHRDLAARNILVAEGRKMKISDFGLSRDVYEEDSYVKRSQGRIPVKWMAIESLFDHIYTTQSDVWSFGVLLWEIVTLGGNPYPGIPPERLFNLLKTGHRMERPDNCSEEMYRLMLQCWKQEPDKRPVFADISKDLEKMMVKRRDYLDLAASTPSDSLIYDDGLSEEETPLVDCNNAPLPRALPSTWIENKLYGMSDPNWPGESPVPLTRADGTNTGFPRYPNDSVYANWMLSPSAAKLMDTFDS", "test": "HTRF kinase activity inhibition, KIF5B-RET", "assay_type": "biochemical", "conditions": "ATP at Km", "from_the_text": "(§1) 2.2 Experimental Reagents: • RET enzyme was purchased from Carna Company, and the article number was 08-159; • RET M918T enzyme was purchased from Carna Company, and the article number was 08-508; • KIF5B-RET was purchased from SignalChem Company, the article number was R02-19FG-05; • CCDC6-RET was purchased from SignalChem Company, the article number was R02-19BG-05; • RET V804M enzyme was purchased from Thermofisher Company, and the article number was PV6223; • RET V804L enzyme was purchased from Thermofisher Company, and the article number was PV4397; • HTRF KinEASE-TK kit was purchased from Cisbio Company, and the article number was 62TK0PEC; • ATP was purchased from Thermofisher Company, and the article number was PV3227; • 384-well plate was purchased from PerkinElmer Company, and the article number was 6007290.\n(§2) In this experiment, a homogeneous time-resolved fluorescence (HTRF) method was used for the detection of compounds on RET kinase activity."}, "[2]": {"target": "T2, RET V804L (Homo sapiens, UniProt P07949, V804L)", "T2 construct": "purchased Thermofisher PV4397", "T2 sequence (P07949 29-1114 V804L)": "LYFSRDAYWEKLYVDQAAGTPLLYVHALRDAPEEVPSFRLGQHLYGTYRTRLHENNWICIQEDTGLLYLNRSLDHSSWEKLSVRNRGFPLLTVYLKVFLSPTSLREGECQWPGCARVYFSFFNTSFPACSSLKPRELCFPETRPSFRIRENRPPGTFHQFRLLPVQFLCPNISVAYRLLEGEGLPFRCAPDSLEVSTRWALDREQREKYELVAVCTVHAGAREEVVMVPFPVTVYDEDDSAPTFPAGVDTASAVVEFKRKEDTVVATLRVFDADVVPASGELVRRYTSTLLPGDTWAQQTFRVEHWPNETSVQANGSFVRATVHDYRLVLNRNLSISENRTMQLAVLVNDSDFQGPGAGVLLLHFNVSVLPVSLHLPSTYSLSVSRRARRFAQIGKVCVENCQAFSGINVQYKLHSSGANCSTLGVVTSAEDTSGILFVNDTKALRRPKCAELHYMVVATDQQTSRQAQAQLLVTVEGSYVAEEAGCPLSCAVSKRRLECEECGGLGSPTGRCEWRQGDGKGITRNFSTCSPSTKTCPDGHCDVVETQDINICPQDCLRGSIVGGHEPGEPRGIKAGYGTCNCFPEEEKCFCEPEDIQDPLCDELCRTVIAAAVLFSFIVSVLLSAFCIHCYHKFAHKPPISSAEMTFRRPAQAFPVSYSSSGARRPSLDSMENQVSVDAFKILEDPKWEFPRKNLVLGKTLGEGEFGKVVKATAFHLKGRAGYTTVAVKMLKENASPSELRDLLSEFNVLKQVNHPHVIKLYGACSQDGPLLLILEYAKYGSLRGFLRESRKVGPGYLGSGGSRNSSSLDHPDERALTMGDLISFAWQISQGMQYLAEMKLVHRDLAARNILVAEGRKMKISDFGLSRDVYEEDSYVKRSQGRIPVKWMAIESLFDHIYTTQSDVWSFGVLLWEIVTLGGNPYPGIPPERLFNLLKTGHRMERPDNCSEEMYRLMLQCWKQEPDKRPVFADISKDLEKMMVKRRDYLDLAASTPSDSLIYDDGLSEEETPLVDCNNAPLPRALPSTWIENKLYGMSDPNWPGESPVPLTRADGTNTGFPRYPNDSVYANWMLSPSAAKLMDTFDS", "test": "HTRF kinase activity inhibition, RET V804L", "assay_type": "biochemical", "conditions": "ATP at Km", "from_the_text": "as §1, §2"}, "[3]": {"target": "T3, RET kinase (Homo sapiens, UniProt P07949)", "T3 construct": "purchased Carna 08-159", "T3 sequence (P07949 29-1114)": "as the sequence (P07949 29-1114 V804L) above, with L776V counted along it", "test": "HTRF kinase activity inhibition, RET wild-type", "assay_type": "biochemical", "conditions": "ATP at Km", "in_short": "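HTRF (KinEASE-TK) kinase assay with recombinant RET wild-type, RET V804M, RET V804L and KIF5B-RET enzymes plus ATP.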"}, "[4]": {"target": "T4, RET V804M (Homo sapiens, UniProt P07949, V804M)", "T4 construct": "purchased Thermofisher PV6223", "T4 sequence (P07949 29-1114 V804M)": "as the sequence (P07949 29-1114 V804L) above, with L776M counted along it", "test": "HTRF kinase activity inhibition, RET V804M", "assay_type": "biochemical", "conditions": "ATP at Km", "from_the_text": "as §1, §2"}, "[5]": {"test": "Balb/C mouse pharmacokinetics, oral 5 mg/kg", "assay_type": "in vivo, Balb/C mice", "conditions": "male, p.o. 5 mg/kg, plasma; for MRT: read-out: Average residence time MRT; for Cmax: read-out: Blood concentration Cmax; for AUC(0-t): read-out: Curve area AUC0-t; for AUC(0-inf): read-out: Curve area AUC0-∞; for half-life: read-out: Half-life t1/2 (converted); for Tmax: read-out: Peak time tmax", "in_short": "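Male Balb/C mice (6 per compound) were fasted overnight and dosed in 0.5% CMC-Na (1% Tween80) solution or suspension. EDTA-K2 plasma was sampled at 0, 0.5, 1, 2, 4, 6, 8 and 24 h. Compound levels were measured by LC/MS/MS after acetonitrile precipitation, and PK parameters were derived from the plasma profiles.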"}}}
{"smiles": "C#C[C@@](C)(O)COc1cc(-c2ccc(N3CC4CC(C3)N4Cc3ccc(OC)nc3)nc2)c2c(C#N)cnn2c1", "note": "[Embodiment 63, 6-(((R)-2-hydroxy-2-methylbut-3-yn-1-yl)oxy)-4-(6-(6-((6-methoxypyridin-3-yl)methyl)-3,6-diazabicyclo[3.1.1]heptan-3-yl)pyridin-3-yl)pyrazolo[1,5-a]pyridine-3-carbonitrile]", "values": [{"measurement": "IC50", "setting": "[1]", "result": 0.53, "unit": "nM"}, {"measurement": "IC50", "setting": "[2]", "result": 0.24, "unit": "nM"}, {"measurement": "IC50", "setting": "[3]", "result": 0.34, "unit": "nM"}, {"measurement": "IC50", "setting": "[4]", "result": 0.6, "unit": "nM"}, {"measurement": "MRT", "setting": "[5]", "result": 2.9, "unit": "h"}, {"measurement": "Cmax", "setting": "[5]", "result": 2.94, "unit": "µg/mL"}, {"measurement": "AUC(0-t)", "setting": "[5]", "result": 11, "unit": "µg·h/mL"}, {"measurement": "AUC(0-inf)", "setting": "[5]", "result": 11, "unit": "µg·h/mL"}, {"measurement": "half-life", "setting": "[5]", "result": 1.3, "unit": "h"}, {"measurement": "Tmax", "setting": "[5]", "result": 1, "unit": "h"}]}
{"smiles": "COc1ccc(CN2C3CC2CN(c2ccc(-c4cc(N5CC(C)(C#N)C5)cn5ncc(C#N)c45)cn2)C3)cn1", "note": "[Embodiment 77, 6-(3-Cyano-3-methylazetidin-1-yl)-4-(6-(6-((6-methoxypyridin-3-yl)methyl)-3,6-diazabicyclo[3.1.1]heptan-3-yl)pyridin-3-yl)pyrazolo[1,5-a]pyridine-3-carbonitrile]", "values": [{"measurement": "IC50", "setting": "[1]", "result": 0.42, "unit": "nM"}, {"measurement": "IC50", "setting": "[2]", "result": 0.49, "unit": "nM"}, {"measurement": "IC50", "setting": "[3]", "result": 0.37, "unit": "nM"}, {"measurement": "IC50", "setting": "[4]", "result": 0.6, "unit": "nM"}, {"measurement": "MRT", "setting": "[5]", "result": 6, "unit": "h"}, {"measurement": "Cmax", "setting": "[5]", "result": 4.68, "unit": "µg/mL"}, {"measurement": "AUC(0-t)", "setting": "[5]", "result": 51.6, "unit": "µg·h/mL"}, {"measurement": "AUC(0-inf)", "setting": "[5]", "result": 51.9, "unit": "µg·h/mL"}, {"measurement": "half-life", "setting": "[5]", "result": 3.2, "unit": "h"}, {"measurement": "Tmax", "setting": "[5]", "result": 0.5, "unit": "h"}]}
{"smiles": "COc1ncc(CN2C3CC2CN(c2ccc(-c4cc(C#CC(C)(C)O)cn5ncc(C#N)c45)cn2)C3)cc1F", "note": "[Embodiment 18, 4-(6-(6-((5-Fluoro-6-methoxypyridin-3-yl)methyl)-3,6-diazabicyclo[3.1.1]heptan-3-yl)pyridin-3-yl)-6-(3-hydroxy-3-methylbut-1-yn-1-yl)pyrazolo[1,5-a]pyridine-3-carbonitrile]", "values": [{"measurement": "IC50", "setting": "[1]", "result": 0.97, "unit": "nM"}, {"measurement": "IC50", "setting": "[2]", "result": 0.74, "unit": "nM"}, {"measurement": "IC50", "setting": "[3]", "result": 0.31, "unit": "nM"}, {"measurement": "IC50", "setting": "[4]", "result": 1.8, "unit": "nM"}, {"measurement": "MRT", "setting": "[5]", "result": 4.61, "unit": "h"}, {"measurement": "Cmax", "setting": "[5]", "result": 2.79, "unit": "µg/mL"}, {"measurement": "AUC(0-t)", "setting": "[5]", "result": 18.2, "unit": "µg·h/mL"}, {"measurement": "AUC(0-inf)", "setting": "[5]", "result": 18.2, "unit": "µg·h/mL"}, {"measurement": "half-life", "setting": "[5]", "result": 2.9, "unit": "h"}, {"measurement": "Tmax", "setting": "[5]", "result": 0.5, "unit": "h"}]}
{"smiles": "C#C[C@](C)(O)COc1cc(-c2ccc(N3CC4CC(C3)N4Cc3ccc(OC)nc3)nc2)c2c(C#N)cnn2c1", "note": "[Embodiment 64, 6-(((S)-2-hydroxy-2-methylbut-3-yn-1-yl)oxy)-4-(6-(6-((6-methoxypyridin-3-yl)methyl)-3,6-diazabicyclo[3.1.1]heptan-3-yl)pyridin-3-yl)pyrazolo[1,5-a]pyridine-3-carbonitrile]", "values": [{"measurement": "IC50", "setting": "[1]", "result": 0.36, "unit": "nM"}, {"measurement": "IC50", "setting": "[2]", "result": 0.23, "unit": "nM"}, {"measurement": "IC50", "setting": "[3]", "result": 0.38, "unit": "nM"}, {"measurement": "IC50", "setting": "[4]", "result": 3, "unit": "nM"}, {"measurement": "MRT", "setting": "[5]", "result": 2.7, "unit": "h"}, {"measurement": "Cmax", "setting": "[5]", "result": 3.92, "unit": "µg/mL"}, {"measurement": "AUC(0-t)", "setting": "[5]", "result": 14.5, "unit": "µg·h/mL"}, {"measurement": "AUC(0-inf)", "setting": "[5]", "result": 14.5, "unit": "µg·h/mL"}, {"measurement": "half-life", "setting": "[5]", "result": 1.2, "unit": "h"}, {"measurement": "Tmax", "setting": "[5]", "result": 1, "unit": "h"}]}
